Experiment [1] concerns TNFα. Nature of the experiment: LPS Mouse Assay, serum TNFα by ELISA. The class given is in vivo, Balb C ByJ mice. Particulars: i.p. or oral, 30 minutes before 1 mg/kg LPS i.p.; serum 2 hours after LPS. The protocol: (§1) 7 week-old Balb C ByJ mice (24-28 g) were administered, either by i.p. (5 ml/kg) or oral (10 ml/kg) administration, with vehicle or test article. 30 minutes later these animals were challenged with an intraperitoneal injection of 1 mg/kg LPS. 2 hours after LPS challenge blood samples were collected under light isoflurane anaesthesia into normal tubes by retro-orbital puncture. Samples were allowed to clot at room temperature and then spun at 6000 g for 3 min at 4° C. Serum was stored at −20° C. until use. Serum TNFα and IL-10 levels were analysed in duplicate by ELISA technique.

Experiment [2] deals with IL-10. Nature of the experiment: LPS Mouse Assay, serum IL-10 by ELISA. The following applies: i.p. or oral, 30 minutes before 1 mg/kg LPS i.p.; serum 2 hours after LPS. The class given is in vivo, Balb C ByJ mice. The protocol: as §1
(In an ELISA, binding on a coated surface is turned into a signal by an enzyme label.)

Experiment [3] deals with inflammation induced by carrageenan paw injection. In words: Carrageenan Paw Assay. The format is in vivo, male Wistar rats. The following applies: oral gavage, half an hour before 2% carrageenan; paw measured at 1-5 hours. The protocol:
Fasted (18 hour) male Wistar rats (105-130 g) were weighed and a basal mercury plethysmometer reading was taken of the right hind paw by submerging the paw in the mercury up to the tibiotarsal joint. Subsequently, vehicles, reference items and test articles were administered by oral gavage (10 ml/kg). Half an hour after treatment 0.1 ml of 2% carrageenan in 0.9% saline was injected into the subplanatar area of the right hind paw. The right paw was measured again with the plethysmometer at 1, 2, 3, 4 and 5 hours after carrageenan administration.
Background: In the carrageenan paw model, swelling and tenderness develop within hours.

On to `CC(C)(CO)NCC(=O)c1cc(Cl)c(N)c(Cl)c1` [Compound (3), 1-(4-Amino-3,5-dichlorophenyl)-2-(1-hydroxy-2-methylpropan-2-ylamino)ethanone], for which the “effect on serum TNFα” value in experiment [1] is recorded as “strong inhibitory effects”. The “effect on serum IL-10” value in experiment [2] is “potentiating effects”. Besides, the “effect on inflammation induced by carrageenan paw injection” value in experiment [3] is “dose-dependant inhibitory effect”.

These data come from patent US8188150B2, “Use of beta-aminoalcohols in the treatment of inflammatory disorders and pain” (Biocopea Limited, priority 2006, dated 2012).
